One assay has as its target HCoV-229E 3CLpro (Human coronavirus 229E, UniProt P0C6X1). The experiment in a line: HCoV-229E 3CLpro inhibition assay (FRET). It is filed as biochemical.
The target of a further assay is SARS-CoV 3CLpro (Severe acute respiratory syndrome coronavirus, UniProt P0C6X7). The experiment in a line: biochemical.
A further assay has as its target SARS-CoV-2 3CLpro (Severe acute respiratory syndrome coronavirus 2, UniProt P0DTD1). Put plainly: biochemical.
For a further assay, the target named is MERS-CoV 3CLpro (Middle East respiratory syndrome-related coronavirus, UniProt K9N7C7). The experiment in a line: biochemical.
MERS-CoV 3CLpro, sequence (K9N7C7 3248-3553): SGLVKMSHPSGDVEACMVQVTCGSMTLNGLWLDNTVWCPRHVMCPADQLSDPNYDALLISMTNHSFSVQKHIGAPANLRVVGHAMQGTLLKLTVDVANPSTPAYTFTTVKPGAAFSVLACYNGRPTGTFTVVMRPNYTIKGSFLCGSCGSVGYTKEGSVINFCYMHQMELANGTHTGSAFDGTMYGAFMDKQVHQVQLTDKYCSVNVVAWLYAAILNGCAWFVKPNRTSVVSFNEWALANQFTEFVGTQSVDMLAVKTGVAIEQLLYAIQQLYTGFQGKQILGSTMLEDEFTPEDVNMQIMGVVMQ

HCoV-229E 3CLpro, sequence (P0C6X1 2966-3267): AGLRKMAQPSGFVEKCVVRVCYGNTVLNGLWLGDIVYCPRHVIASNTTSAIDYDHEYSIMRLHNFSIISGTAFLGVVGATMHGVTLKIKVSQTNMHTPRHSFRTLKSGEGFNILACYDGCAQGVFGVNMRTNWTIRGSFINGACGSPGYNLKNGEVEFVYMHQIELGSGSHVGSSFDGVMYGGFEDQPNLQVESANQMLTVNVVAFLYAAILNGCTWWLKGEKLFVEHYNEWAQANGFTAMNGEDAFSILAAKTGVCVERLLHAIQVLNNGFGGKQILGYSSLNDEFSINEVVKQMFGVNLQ

As for `CCC(C)(C)[C@H](NC(=O)[C@@H]1CC1(F)F)C(=O)N1C[C@@H]2CCC[C@@H]2[C@H]1C(=O)NN(C[C@@H]1CCNC1=O)C(=O)[C@@H](F)Cl` [Example 152, (1S)—N-[(1S)-1-[(3S,3aS,6aR)-3-[[[(2S)-2-chloro-2-fluoro-acetyl]-[[(3S)-2-oxopyrrolidin-3-yl]methyl]amino]carbamoyl]-3,3a,4,5,6,6a-hexahydro-1H-cyclopenta[c]pyrrole-2-carbonyl]-2,2-dimethyl-butyl]-2,2-difluoro-cyclopropanecarboxamide], the concentration for half-maximal inhibition (IC50) (usually the midpoint of a concentration-inhibition curve) against HCoV-229E 3CLpro stood at 28 nM; at SARS-CoV 3CLpro, 20 nM; against SARS-CoV-2 3CLpro, 15 nM; on MERS-CoV 3CLpro, 99 nM.

Take `CCC(C)(C)[C@H](NC(=O)C(F)F)C(=O)N1C[C@@H]2CCC[C@@H]2[C@H]1C(=O)NN(C[C@@H]1CCNC1=O)C(=O)[C@@H](F)Cl` [Example 153, N-[(1S)-1-[(3S,3aS,6aR)-3-[[[(2S)-2-chloro-2-fluoro-acetyl]-[[(3S)-2-oxopyrrolidin-3-yl]methyl]amino]carbamoyl]-3,3a,4,5,6,6a-hexahydro-1H-cyclopenta[c]pyrrole-2-carbonyl]-2,2-dimethyl-butyl]-2,2-difluoro-acetamide]: the IC50 on HCoV-229E 3CLpro was determined as 43 nM; on SARS-CoV 3CLpro it was 15 nM; at SARS-CoV-2 3CLpro, 12 nM; against MERS-CoV 3CLpro it was 250 nM.

As for `CCC(C)(C)[C@H](NC(=O)C1(F)CC1)C(=O)N1CC(C)(C)C[C@H]1C(=O)NN(C[C@@H]1CCNC1=O)C(=O)[C@H](F)Cl` [Example 154, N-[(1S)-1-[(2S)-2-[[[(2R)-2-chloro-2-fluoro-acetyl]-[[(3S)-2-oxopyrrolidin-3-yl]methyl]amino]carbamoyl]-4,4-dimethyl-pyrrolidine-1-carbonyl]-2,2-dimethyl-butyl]-1-fluoro-cyclopropanecarboxamide], the half-maximal inhibitory concentration (IC50) at HCoV-229E 3CLpro is 52 nM; against SARS-CoV 3CLpro it was 21 nM; at SARS-CoV-2 3CLpro it was 17 nM; on MERS-CoV 3CLpro, 305 nM.

For `CC(C)(C)[C@H](NC(=O)C(F)(F)F)C(=O)N1CCC(C)(C)[C@H]1C(=O)NN(C[C@@H]1CCNC1=O)C(=O)[C@H](F)Cl` [Example 155a, N-[(1S)-1-[(2S)-2-[[[(2R)-2-chloro-2-fluoro-acetyl]-[[(3S)-2-oxopyrrolidin-3-yl]methyl]amino]carbamoyl]-3,3-dimethyl-pyrrolidine-1-carbonyl]-2,2-dimethyl-propyl]-2,2,2-trifluoro-acetamide], the half-maximal inhibitory concentration (IC50) on HCoV-229E 3CLpro is 739 nM; at SARS-CoV 3CLpro, 28 nM; at SARS-CoV-2 3CLpro, 24 nM; against MERS-CoV 3CLpro it was 1330 nM.

Regarding `CC(C)(C)[C@H](NC(=O)C(F)(F)F)C(=O)N1CCC(C)(C)[C@@H]1C(=O)NN(C[C@@H]1CCNC1=O)C(=O)[C@H](F)Cl` [Example 155b, N-[(1S)-1-[(2R)-2-[[[(2R)-2-chloro-2-fluoro-acetyl]-[[(3S)-2-oxopyrrolidin-3-yl]methyl]amino]carbamoyl]-3,3-dimethyl-pyrrolidine-1-carbonyl]-2,2-dimethyl-propyl]-2,2,2-trifluoro-acetamide], the IC50 at HCoV-229E 3CLpro was over 10000 nM; on SARS-CoV 3CLpro it was 2440 nM; on SARS-CoV-2 3CLpro, 1570 nM; against MERS-CoV 3CLpro, over 10000 nM.

Consider `CC1(C)[C@@H]2[C@@H](C(=O)NN(C[C@@H]3CCNC3=O)C(=O)[C@H](F)Cl)N(C(=O)[C@@H](NC(=O)C3(F)CC3)C3CCC3)C[C@@H]21` [Example 156, N-[(1S)-2-[(1R,2S,5S)-2-[[[(2R)-2-chloro-2-fluoro-acetyl]-[[(3S)-2-oxopyrrolidin-3-yl]methyl]amino]carbamoyl]-6,6-dimethyl-3-azabicyclo[3.1.0]hexan-3-yl]-1-cyclobutyl-2-oxo-ethyl]-1-fluoro-cyclopropanecarboxamide], for which the IC50 at HCoV-229E 3CLpro was determined as 32 nM; against SARS-CoV 3CLpro, 28 nM; on SARS-CoV-2 3CLpro, 14 nM; at MERS-CoV 3CLpro it was 106 nM.

For `CC1(C)[C@@H]2[C@@H](C(=O)NN(C[C@@H]3CCNC3=O)C(=O)[C@@H](F)Cl)N(C(=O)[C@@H](NC(=O)C3(F)CC3)C3CCC3)C[C@@H]21` [Example 157, N-[(1S)-2-[(1R,2S,5S)-2-[[[(2S)-2-chloro-2-fluoro-acetyl]-[[(3S)-2-oxopyrrolidin-3-yl]methyl]amino]carbamoyl]-6,6-dimethyl-3-azabicyclo[3.1.0]hexan-3-yl]-1-cyclobutyl-2-oxo-ethyl]-1-fluoro-cyclopropanecarboxamide], the IC50 is 60 nM against HCoV-229E 3CLpro, 58 nM at SARS-CoV 3CLpro, 44 nM against SARS-CoV-2 3CLpro and 149 nM at MERS-CoV 3CLpro.

For the compound `CC(C)(C)[C@H](NC(=O)[C@@H]1CC1(F)F)C(=O)N1C[C@H](C(F)(F)F)C[C@H]1C(=O)NN(C[C@@H]1CCNC1=O)C(=O)[C@H](F)Cl` [Example 158, (1S)—N-[(1S)-1-[(2S,4R)-2-[[[(2R)-2-chloro-2-fluoro-acetyl]-[[(3S)-2-oxopyrrolidin-3-yl]methyl]amino]carbamoyl]-4-(trifluoromethyl)pyrrolidine-1-carbonyl]-2,2-dimethyl-propyl]-2,2-difluoro-cyclopropanecarboxamide], the IC50 at HCoV-229E 3CLpro amounted to 34 nM; against SARS-CoV 3CLpro it was 17 nM; at SARS-CoV-2 3CLpro, 11 nM; against MERS-CoV 3CLpro it was 80 nM.

Consider `CC(C)(C)[C@H](NC(=O)[C@@H]1CC1(F)F)C(=O)N1C[C@H](C(F)(F)F)C[C@H]1C(=O)NN(C[C@@H]1CCNC1=O)C(=O)[C@@H](F)Cl` [Example 159, (1S)—N-[(1S)-1-[(2S,4R)-2-[[[(2S)-2-chloro-2-fluoro-acetyl]-[[(3S)-2-oxopyrrolidin-3-yl]methyl]amino]carbamoyl]-4-(trifluoromethyl)pyrrolidine-1-carbonyl]-2,2-dimethyl-propyl]-2,2-difluoro-cyclopropanecarboxamide], for which the IC50 came out at 40 nM at HCoV-229E 3CLpro, 13 nM against SARS-CoV 3CLpro, 13 nM against SARS-CoV-2 3CLpro and 103 nM at MERS-CoV 3CLpro.

Consider `CC[C@H](C)[C@H](NC(=O)C1(F)CC1)C(=O)N1C[C@H](C(F)(F)F)C[C@H]1C(=O)NN(C[C@@H]1CCNC1=O)C(=O)[C@H](F)Cl` [Example 160, N-[(1S,2S)-1-[(2S,4R)-2-[[[(2R)-2-chloro-2-fluoro-acetyl]-[[(3S)-2-oxopyrrolidin-3-yl]methyl]amino]carbamoyl]-4-(trifluoromethyl)pyrrolidine-1-carbonyl]-2-methyl-butyl]-1-fluoro-cyclopropanecarboxamide], for which the IC50 was 24 nM against HCoV-229E 3CLpro, 19 nM against SARS-CoV 3CLpro, 13 nM on SARS-CoV-2 3CLpro and 105 nM against MERS-CoV 3CLpro.

As for `CC[C@H](C)[C@H](NC(=O)C1(F)CC1)C(=O)N1C[C@H](C(F)(F)F)C[C@H]1C(=O)NN(C[C@@H]1CCNC1=O)C(=O)[C@@H](F)Cl` [Example 161, N-[(1S,2S)-1-[(2S,4R)-2-[[[(2S)-2-chloro-2-fluoro-acetyl]-[[(3S)-2-oxopyrrolidin-3-yl]methyl]amino]carbamoyl]-4-(trifluoromethyl)pyrrolidine-1-carbonyl]-2-methyl-butyl]-1-fluoro-cyclopropanecarboxamide], the IC50 on HCoV-229E 3CLpro was 99 nM; on SARS-CoV 3CLpro, 27 nM; at SARS-CoV-2 3CLpro, 16 nM; against MERS-CoV 3CLpro, 336 nM.

Consider `CC(C)(C)C[C@H](NC(=O)C1(F)CC1)C(=O)N1C[C@H]2[C@@H]([C@H]1C(=O)NN(C[C@@H]1CCNC1=O)C(=O)[C@H](F)Cl)C2(C)C` [Example 162, N-[(1S)-1-[(1R,2S,5S)-2-[[[(2R)-2-chloro-2-fluoro-acetyl]-[[(3S)-2-oxopyrrolidin-3-yl]methyl]amino]carbamoyl]-6,6-dimethyl-3-azabicyclo[3.1.0]hexane-3-carbonyl]-3,3-dimethyl-butyl]-1-fluoro-cyclopropanecarboxamide], for which the 50% inhibitory concentration (IC50) at HCoV-229E 3CLpro is 33 nM; against SARS-CoV 3CLpro it was 15 nM; on SARS-CoV-2 3CLpro, 12 nM; against MERS-CoV 3CLpro it was 94 nM.

For the compound `CC(C)(C)[C@H](NC(=O)C(F)(F)F)C(=O)N1C[C@@H]2CCC[C@@H]2[C@H]1C(=O)NN(C[C@@H]1CCCNC1=O)C(=O)[C@H](F)Cl` [Example 164a, N-[(1S)-1-[(3S,3aS,6aR)-3-[[[(2R)-2-chloro-2-fluoro-acetyl]-[[(3S)-2-oxo-3-piperidyl]methyl]amino]carbamoyl]-3,3a,4,5,6,6a-hexahydro-1H-cyclopenta[c]pyrrole-2-carbonyl]-2,2-dimethyl-propyl]-2,2,2-trifluoro-acetamide], the half-maximal inhibitory concentration (IC50) against HCoV-229E 3CLpro amounted to 98 nM; against SARS-CoV 3CLpro, 16 nM; on SARS-CoV-2 3CLpro, 8 nM; at MERS-CoV 3CLpro, 243 nM.

`CC[C@H](C)[C@H](NC(=O)C1(F)CC1)C(=O)N1C[C@H]2[C@@H]([C@H]1C(=O)NN(C[C@@H]1CCCNC1=O)C(=O)[C@H](F)Cl)C2(C)C` [Example 166a, N-[(1S,2S)-1-[(1R,2S,5S)-2-[[[(2R)-2-chloro-2-fluoro-acetyl]-[[(3S)-2-oxo-3-piperidyl]methyl]amino]carbamoyl]-6,6-dimethyl-3-azabicyclo[3.1.0]hexane-3-carbonyl]-2-methyl-butyl]-1-fluoro-cyclopropanecarboxamide]: the IC50 was 47 nM against HCoV-229E 3CLpro, 18 nM against SARS-CoV 3CLpro, 13 nM at SARS-CoV-2 3CLpro and 229 nM at MERS-CoV 3CLpro.

As for `CC[C@H](C)[C@H](NC(=O)C1(F)CC1)C(=O)N1C[C@H]2[C@@H]([C@H]1C(=O)NN(C[C@H]1CCCNC1=O)C(=O)[C@H](F)Cl)C2(C)C` [Example 166b, N-[(1S,2S)-1-[(1R,2S,5S)-2-[[[(2R)-2-chloro-2-fluoro-acetyl]-[[(3R)-2-oxo-3-piperidyl]methyl]amino]carbamoyl]-6,6-dimethyl-3-azabicyclo[3.1.0]hexane-3-carbonyl]-2-methyl-butyl]-1-fluoro-cyclopropanecarboxamide], the IC50 on HCoV-229E 3CLpro was found to be 51 nM; against SARS-CoV 3CLpro, 30 nM; on SARS-CoV-2 3CLpro, 19 nM; against MERS-CoV 3CLpro, 239 nM.

The values are drawn from US20250059171A1 (Hoffmann-La Roche Inc., priority 2021, published 2025).
